Measurements reported in ChEMBL document CHEMBL3576787, “Alkaloidal metabolites from a marine-derived Aspergillus sp. fungus” (J Nat Prod, 2015).
Values after ≈ are worked out from the molar mass of the structure shown. Active and inactive are the calls of the source. No cut-off for these calls is given here.

Columns and labels:
Staphylococcus aureus = test: Antimicrobial activity against Staphylococcus aureus incubated for 24 hrs; assay type: functional
Micrococcus luteus = test: Antimicrobial activity against Micrococcus luteus incubated for 24 hrs; assay type: functional
Salmonella typhimurium = test: Antimicrobial activity against Salmonella typhimurium incubated for 24 hrs; assay type: functional, Salmonella enterica subsp. enterica serovar Typhimurium; details: Salmonella enterica
Proteus hauseri = test: Antimicrobial activity against Proteus hauseri incubated for 24 hrs; assay type: functional
Escherichia coli = test: Antimicrobial activity against Escherichia coli incubated for 24 hrs; assay type: functional
[1] = Inhibition of porcine cerebral cortex Na+/K+ ATPase using 3-O-methylfluorescein phosphate and […] incubated for 30 mins by spectrophotometry; assay type: tissue-based, Sus scrofa
A549 = test: Cytotoxicity against human A549 cells; assay type: functional, cell-based
K562 = test: Cytotoxicity against human K562 cells; assay type: functional, cell-based
[2] = target: Isocitrate lyase (Candida albicans) (UniProt Q9P8Q7); test: Inhibition of Candida albicans isocitrate lyase assessed as reduction in glyoxylate phenylhydrazone formation using phenylhydrazine and isocitrate incubated for 30 mins by spectrophotometry
Isocitrate lyase (Candida albicans), sequence (Q9P8Q7 whole entry): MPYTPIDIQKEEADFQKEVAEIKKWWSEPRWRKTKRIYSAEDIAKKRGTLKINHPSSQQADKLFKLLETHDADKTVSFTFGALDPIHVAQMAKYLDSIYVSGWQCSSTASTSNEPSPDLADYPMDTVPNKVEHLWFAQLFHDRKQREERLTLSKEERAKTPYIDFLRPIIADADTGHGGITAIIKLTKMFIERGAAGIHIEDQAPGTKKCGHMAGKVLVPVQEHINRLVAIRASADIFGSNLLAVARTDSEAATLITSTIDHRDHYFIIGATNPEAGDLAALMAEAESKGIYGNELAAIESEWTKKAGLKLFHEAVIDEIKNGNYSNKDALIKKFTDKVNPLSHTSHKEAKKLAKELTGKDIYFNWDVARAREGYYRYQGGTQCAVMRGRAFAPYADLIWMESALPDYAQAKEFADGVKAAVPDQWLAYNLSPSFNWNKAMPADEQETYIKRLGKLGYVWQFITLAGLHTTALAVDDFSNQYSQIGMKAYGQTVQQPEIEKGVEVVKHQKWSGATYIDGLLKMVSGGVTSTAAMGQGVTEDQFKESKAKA

[3] = target: Sortase A (Staphylococcus aureus) (UniProt Q2FV99); test: Inhibition of sortase A (Staphylococcus aureus)

CC1(C)S[C@@H]2[C@H](NC(=O)[C@H](N)c3ccccc3)C(=O)N2[C@H]1C(=O)O [AMPICILLIN]
MIC (Staphylococcus aureus): 0.78 µg/mL (≈ 2.23 µM)
MIC (Micrococcus luteus): 0.2 µg/mL (≈ 0.572 µM)
MIC (Salmonella typhimurium): 0.78 µg/mL (≈ 2.23 µM)
MIC (Proteus hauseri): 0.39 µg/mL (≈ 1.12 µM)
MIC (Escherichia coli): 3.13 µg/mL (≈ 8.96 µM)

C[C@@H]1O[C@@H](O[C@H]2C[C@@H](O)[C@]3(CO)[C@H]4[C@H](O)C[C@]5(C)[C@@H](C6=CC(=O)OC6)CC[C@]5(O)[C@@H]4CC[C@]3(O)C2)[C@H](O)[C@H](O)[C@H]1O [OUABAIN]
IC50 [1]: 6.43 µM

CC(C)[C@@H]1N[C@@H]2N(C1=O)c1ccccc1[C@]21C[C@@H]2C(=O)N[C@](C)(O1)c1nc3ccccc3c(=O)n12 [FUMIQUINAZOLINE L]
IC50 (A549): > 100 µM
IC50 (K562): > 100 µM
MIC (Staphylococcus aureus): > 100 µg/mL
MIC (Micrococcus luteus): 100 µg/mL (≈ 212 µM)
MIC (Salmonella typhimurium): 100 µg/mL (≈ 212 µM)
MIC (Proteus hauseri): > 100 µg/mL
MIC (Escherichia coli): > 100 µg/mL
IC50 [1]: 20.2 µM
inhibition [2]: inactive
inhibition [3]: inactive

C[C@H]1C(=O)N2c3ccccc3[C@]3(O)C[C@@H](n4cnc5ccccc5c4=O)C(=O)N1[C@H]23
IC50 (A549): 21.9 µM
IC50 (K562): 50.4 µM
MIC (Staphylococcus aureus): > 100 µg/mL
MIC (Micrococcus luteus): > 100 µg/mL
MIC (Salmonella typhimurium): > 100 µg/mL
MIC (Proteus hauseri): > 100 µg/mL
MIC (Escherichia coli): > 100 µg/mL
IC50 [1]: 78.1 µM
inhibition [2]: inactive
inhibition [3]: inactive

CC[C@H]1C(=O)N2c3ccccc3[C@]3(O)C[C@@H](n4cnc5ccccc5c4=O)C(=O)N1[C@H]23
IC50 (A549): 19.3 µM
IC50 (K562): 25.9 µM
MIC (Staphylococcus aureus): > 100 µg/mL
MIC (Micrococcus luteus): > 100 µg/mL
MIC (Salmonella typhimurium): > 100 µg/mL
MIC (Proteus hauseri): > 100 µg/mL
MIC (Escherichia coli): > 100 µg/mL
IC50 [1]: 19.5 µM
inhibition [2]: inactive
inhibition [3]: inactive

CC(C)[C@H]1C(=O)N2c3ccccc3[C@]3(O)C[C@@H](n4cnc5ccccc5c4=O)C(=O)N1[C@H]23
IC50 (A549): 18.6 µM
IC50 (K562): 14.4 µM
MIC (Staphylococcus aureus): > 100 µg/mL
MIC (Micrococcus luteus): > 100 µg/mL
MIC (Salmonella typhimurium): > 100 µg/mL
MIC (Proteus hauseri): > 100 µg/mL
MIC (Escherichia coli): > 100 µg/mL
IC50 [1]: 37.9 µM
inhibition [2]: inactive
inhibition [3]: inactive

C[C@@H]1NC(=O)[C@@H](Cc2c[nH]c3ccccc23)n2c1nc1ccccc1c2=O [FUMIQUINAZOLINE F]
IC50 (A549): > 100 µM
IC50 (K562): > 100 µM
MIC (Staphylococcus aureus): > 100 µg/mL
MIC (Micrococcus luteus): > 100 µg/mL
MIC (Salmonella typhimurium): > 100 µg/mL
MIC (Proteus hauseri): 100 µg/mL (≈ 279 µM)
MIC (Escherichia coli): > 100 µg/mL
IC50 [1]: 17.4 µM
inhibition [2]: inactive
inhibition [3]: inactive

CC(C)[C@H]1C(=O)N2c3ccccc3[C@]3(O)C[C@H](n4cnc5ccccc5c4=O)C(=O)N1[C@H]23
IC50 (A549): 29.2 µM
IC50 (K562): 17.8 µM
MIC (Staphylococcus aureus): 100 µg/mL (≈ 232 µM)
MIC (Micrococcus luteus): > 100 µg/mL
MIC (Salmonella typhimurium): 100 µg/mL (≈ 232 µM)
MIC (Proteus hauseri): 100 µg/mL (≈ 232 µM)
MIC (Escherichia coli): > 100 µg/mL
IC50 [1]: 56.8 µM
inhibition [2]: inactive
inhibition [3]: inactive

CC(C)[C@@H]1N[C@@H]2N(C1=O)c1ccccc1[C@]2(O)C[C@@H]1C(=O)N[C@@H](C)c2nc3ccccc3c(=O)n21
IC50 (A549): 15.8 µM
IC50 (K562): 13.8 µM
MIC (Staphylococcus aureus): > 100 µg/mL
MIC (Micrococcus luteus): > 100 µg/mL
MIC (Salmonella typhimurium): > 100 µg/mL
MIC (Proteus hauseri): > 100 µg/mL
MIC (Escherichia coli): > 100 µg/mL
IC50 [1]: 34.3 µM
inhibition [2]: inactive
inhibition [3]: inactive

COc1cccc2c1C(=O)c1c(O)c3c(c(O)c1C2=O)C[C@@](O)(C(=O)CO)C[C@@H]3O[C@H]1C[C@H](N)[C@H](O)[C@H](C)O1 [DOXORUBICIN]
IC50 (A549): 1.83 µM
IC50 (K562): 1.46 µM
